Reference: US20260008775A1, “AZOLE MODULATORS OF CHOLESTEROL BIOSYNTHESIS AND THEIR USE FOR PROMOTING REMYELINATION” (GENENTECH, INC., priority 2022, published 2026)

Tests used:
[1] = tested on: zymostenol accumulation (EBP) in EpiSC-derived OPCs; assay: GC/MS-based sterol profiling, zymostenol accumulation in EpiSC-derived OPCs; format: cell-based, mouse; conditions: Mus musculus, 24 h, EpiSC-derived OPCs, 24 hr, 8 doses from 0.15 nM to 333 nM; read-out: Mouse Zymostenol GCMS EC50
Procedure, shortened: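 Zymostenol level is expressed relative to that after 24 h with 100 nM positive-control reference, measured by full-scan GC/MS (m/z 458) with cholesterol-d7 internal standard after BSTFA derivatisation. Cells were EpiSC-derived OPCs, 100,000/well in N2B27 without growth factors, treated 24 h, from two or more independent platings.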

[2] = molecular target: human emopamil binding protein and human 7-dehydrocholesterol reductase (hEBP-DHCR7) (Homo sapiens (Human), UniProt Q15125); assay: hEBP-DHCR7 radioligand binding assay (filter binding, membranes of co-expressing HEK293 cells); conditions: competition with [3H] radioligand, 8 doses 0.06 to 5000 nM, Ki calculated from IC50
Procedure, shortened: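 Compound, either single dose 1 μM or eight 5-fold dilutions from 0.06 to 5000 nM, competed with a [3H]-labelled ligand added at 25 nM for binding to co-expressing HEK293 membranes. IC50 came from nonlinear regression, with full block and DMSO as controls, then Cheng–Prusoff conversion to Ki.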

EpiSC-derived OPCs = assay: In vitro phenotypic screening of OPCs, MBP high-content imaging (percentage of oligodendrocytes); format: cell-based, mouse; conditions: Mus musculus, 72 h, 3 days, MBP stain, dose-response 0.5 nM to 1000 nM; read-out: OPC EC50
Procedure, shortened: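 EC50 was fitted by Hill equation to the MBP-positive oligodendrocyte percentage from imaging of fixed, MBP- and DAPI-stained cells. Treatment lasted 3 days at 37 °C, final doses 0.5–1000 nM over 8 points, in growth factor-free N2B27. Cells were EpiSC-derived OPCs, tested in at least two independent platings.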

Sequence of human emopamil binding protein and human 7-dehydrocholesterol reductase (hEBP-DHCR7) (Q15125 whole entry): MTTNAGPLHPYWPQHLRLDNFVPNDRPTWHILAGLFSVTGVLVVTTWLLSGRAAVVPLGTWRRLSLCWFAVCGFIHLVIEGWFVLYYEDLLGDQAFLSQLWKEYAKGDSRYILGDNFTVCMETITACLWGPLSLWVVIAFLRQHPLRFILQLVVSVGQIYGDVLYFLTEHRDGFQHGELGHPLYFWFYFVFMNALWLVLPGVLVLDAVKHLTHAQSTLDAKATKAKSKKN

| SMILES | EC50 [1] | Ki [2] | EC50 (EpiSC-derived OPCs) |
| --- | --- | --- | --- |
| CC(C)n1nc(-c2cccc(OC(F)F)c2)cc1[C@H]1[C@@H]2C[C@@H](N3CCCOCC3)C[C@@H]21 (single isomer, unassigned) [Compound 200*] | 13.7 nM | 11.6 nM | 36.7 nM |
| CCn1nc(-c2ccc(C(F)(F)F)nc2)nc1[C@H]1CC[C@H](N2CCCOCC2)CC1 [8*, 4-((1r,4r)-4-(1-ethyl-3-(6-(trifluoromethyl)pyridin-3-yl)-1H-1,2,4-triazol-5-yl)cyclohexyl)-1,4-oxazepane] | 44.8 nM | 38.2 nM | 280 nM |
| CC(C)n1nc(-c2ccc(C(F)(F)F)cc2)cc1[C@H]1[C@@H]2C[C@@H](N3CCCOCC3)C[C@@H]21 [Compound 182*, 4-((1R,3s,5S,6r)-6-(1-isopropyl-3-(4-(trifluoromethyl)phenyl)-1H-pyrazol-5-yl)bicyclo[3.1.0]hexan-3-yl)-1,4-oxazepane] | 18.5 nM | 15.8 nM | 36.9 nM |
| COCCN1CCN([C@H]2CC[C@@H](c3cc(-c4ccc(C(F)(F)F)nc4)nn3C(C)C)C2)CC1 (single isomer, unassigned) [91*] | 11.3 nM | 12.8 nM | 67.6 nM |
| COCCN1CCN([C@H]2CC[C@@H](c3nc(-c4ccc(C(F)(F)F)nc4)nn3C(C)C)C2)CC1 [Compound 83, 1-((1S,3R)-3-(1-Isopropyl-3-(6-(trifluoromethyl)pyridin-3-yl)-1H-1,2,4-triazol-5-yl)cyclopentyl)-4-(2-methoxyethyl) piperazine] | 12.5 nM | 10.9 nM | 78.4 nM |

Stronger by EC50 [1], values ahead:

| EC50 [1] | Ki [2] | EC50 (EpiSC-derived OPCs) | SMILES |
| --- | --- | --- | --- |
| 1.64 nM | 45 nM | 6.15 nM | CC(C)n1nc(-c2ccc(C(F)(F)F)c(F)c2)nc1[C@H]1CC[C@@H](N2CCOCC2)C1 (single isomer, unassigned) [Compound 111*] |
| 7.75 nM | 20.3 nM | 37.3 nM | CC(C)n1nc(-c2cncc(F)c2)cc1[C@H]1[C@@H]2C[C@H](N3CCCOCC3)C[C@@H]21 [Compound 187*, 4-((1R,3r,5S,6r)-6-(3-(5-Fluoropyridin-3-yl)-1-isopropyl-1H-pyrazol-5-yl)bicyclo[3.1.0]hexan-3-yl)-1,4-oxazepane] |
| 1.1 nM | 7.22 nM | 2.02 nM | CC(C)n1nc(-c2ccnc(C(F)(F)F)n2)cc1[C@H]1[C@@H]2C[C@H](N3CCOC[C@@H]3C)C[C@@H]21 [Compound 101, (S)-4-((1R,3r,5S,6S)-6-(1-Isopropyl-3-(2-(trifluoromethyl)pyrimidin-4-yl)-1H-pyrazol-5-yl)bicyclo[3.1.0]hexan-3-yl)-3-methylmorpholine] |
| 10.9 nM | 9.63 nM | 25.1 nM | CC(C)n1nc(-c2cccc(OC(F)(F)F)c2)cc1[C@H]1[C@@H]2C[C@@H](N3CCCOCC3)C[C@@H]21 [Compound 190*, 4-((1R,3s,5S,6r)-6-(1-isopropyl-3-(3-(trifluoromethoxy)phenyl)-1H-pyrazol-5-yl)bicyclo[3.1.0]hexan-3-yl)-1,4-oxazepane] |
